The values that follow come from patent US9763454B2, “Composition comprising a biological control agent and a fungicide” (Bayer CropScience AG, priority 2012, dated 2017).

The test system of one experiment is Rhizoctonia solani. Nature of the experiment: Rhizoctonia test (cotton)/Drench. To be noted: greenhouse, 30 ml drench per pot, 7 days at 20° C., BioAct 4 × 10^11 cfu/seed, F70 1.2 mg ai/seed. Format: in vivo. The method, then:
(§1) The test is performed under greenhouse conditions.
Perlite was incubated with mycelia of Rhizoctonia solani. Infected perlite was scattered in a 1:1 mix of steamed field soil and sand and was incubated in a dark box in greenhouse for 6 days. After soil incubation, cotton seeds were sown in 6*6 cm pots containing this soil mixture.
Compounds and compound combinations were suspended and diluted with water to the desired concentrations. 30 ml of compound or compound combination preparation were drenched on each pot. Pots were incubated in the greenhouse for 7 days at 20° C.
Assessment consisted of counting of emerged seedlings. 0% means an efficacy which corresponds to that of the untreated control, while an efficacy of 100% means that all seedlings have emerged.

Experiment [1] deals with cotton (variety Vicky) seedlings. Nature of the experiment: Hypocotyl growth enhancement (cotton)/Drench. To be noted: 7 days after sowing. It counts as in vivo. The method, then: as §1
Five cotton (variety Vicky) seeds were sown in a 6*6 cm pot containing 1:1 mix of steamed field soil and sand. Compounds and compound combinations were suspended and diluted with water to the desired concentrations. Just after sowing, 30 ml of compound or compound combination preparation were drenched on each pot. The pots (three replications per treatment) were placed in randomized arrangement in the greenhouse and kept at 20° C. for 7 days.
Length of hypocotyls was measured at 7 days after sowing.

`O=C(NCCc1ncc(C(F)(F)F)cc1Cl)c1ccccc1C(F)(F)F` [F70 fluopyram, fluopyram]: the “Efficacy in % found (activity found; emerged seedlings)” value in the experiment with Rhizoctonia solani is on record as 0%. For the same compound, the “Seedling/hypocotyl length compared in words” value in experiment [1] (drench) was “significantly higher than untreated”. For the same compound, the “Hypocotyl (length, average of 15 seedlings)” value in experiment [1] (greenhouse, 30 ml drench per pot, 20° C., BioAct 4 × 10^11 cfu/plant, F70 1.2 mg ai/plant, untreated 5.3) is 5.9 cm.
